Here are results for 48 molecules from patent US20130302282A1, “Inhibitors of Hepatitis C Virus” (priority 2010, published 2013).

The test system of assay [1] is 1b_Huh-Luc/Neo-ET cell line (bicistronic genotype 1b replicon in Huh 7 cells). Description: HCV 1b replicon assay, luciferase readout. The format is cell-based, HCV genotype 1b. Particulars: Hepatitis C virus. The protocol:
Biological activity of the compounds of the invention was determined using an HCV replicon assay. The 1b_Huh-Luc/Neo-ET cell line persistently expressing a bicistronic genotype 1b replicon in Huh 7 cells was obtained from ReBLikon GMBH. This cell line was used to test compound inhibition using luciferase enzyme activity readout as a measurement of compound inhibition of replicon levels.
On Day 1 (the day after plating), each compound is added in triplicate to the cells. Plates incubated for 72 […] prior to running the luciferase assay. Enzyme activity was measured using a Bright-Glo Kit (cat. number E2620) manufactured by Promega Corporation. The following equation was used to generate a percent control value for each compound.
%Control=(Average Compound Value/Average Control)*100
The EC50 value was determined using GraphPad Prism and the following equation:
Y=Bottom+(Top−Bottom)/(1+10̂((LogIC50−X)*HillSlope))
EC50 values of compounds are repeated several times in the replicon assay.

The next assay deals with HCV 1a. Description: HCV 1a replicon assay. The format is cell-based. The conditions noted are these: Hepatitis C virus; class symbol; cell marked (HCV genotype 1a replicon); read-out: Inhibition of HCV genotype 1a replicon. The protocol: Compounds of the invention can inhibit multiple genotypes of HCV selected but not limited to 1a, 1h, 2a, 3a, and 4a. The EC50s are measured in the corresponding replicon assays that are similar to HCV 1b replicon assay as described above.
The biological activity against HCV 1b, 1a, or 2a is indicated as being *, **, ***, or ****, which corresponds to EC50 ranges of EC50>1000 nM, 100 nM<EC50≦1000 nM, 10 nM<EC50≦100 nM, or EC50≦10 nM, respectively. The biological activity against HCV NS5B C316Y or S365A mutant is indicated as being […], which corresponds to EC50 ranges of EC50>1000 nM, 200 nM<EC50≦1000 nM, […], respectively.

[2] abbreviates: Huh-7, 1b_Huh-Luc/Neo-ET cell line, read-out: EC50, half-maximal inhibition of HCV 1b replication.
[3] abbreviates: Huh-7, class symbol, HCV genotype 1b replicon, read-out: Inhibition of HCV genotype 1b replicon.

pEC50: −log10 of the molar value. Where two headings read alike, the source gives them in different places. Some results are limits rather than exact numbers.

For the molecule `[2H]C([2H])([2H])NC(=O)c1c(-c2ccc(F)cc2)oc2cc3c(cc12)C(C)CCCN3S(C)(=O)=O` (centres unmarked) [Compound B121], the pEC50 was at least 8.00 in assay [1] (setting [2]) and over 8.00 in the assay on HCV 1a.
The matching figures for `CNC(=O)c1c(-c2ccc(F)cc2)oc2cc3c(cc12)C(CF)OCCN3S(C)(=O)=O` (centres unmarked) [Compound B153]: 7.00 to 8.00 and 7.00 to 8.00.
The matching figures for `[2H]C([2H])([2H])NC(=O)c1c(-c2ccc(F)cc2)oc2cc3c(cc12)CCCCCN3S(C)(=O)=O` [Compound B113]: 7.00 to 8.00 and 7.00 to 8.00.
For `CNC(=O)c1c(-c2ccc(F)cc2)oc2cc3c(cc12)C1(CCCCN3S(C)(=O)=O)CC1` [Compound B104], in the assay with HCV 1a, the pEC50 was 6.00 to 7.00.
Consider `CNC(=O)c1c(-c2ccc(Oc3ccc(F)cc3)cc2)oc2cc3c(cc12)[C@@H](C)OCCN3S(C)(=O)=O` [Compound B117], for which the pEC50 in the assay with HCV 1a is 6.00 to 7.00.
For the molecule `CNC(=O)c1c(-c2ccc(F)cc2)oc2cc3c(cc12)CCCCN3S(=O)(=O)N(C)C` [Compound B103], the pEC50 in the assay on HCV 1a was 6.00 to 7.00.
Turning to `CNC(=O)c1c(-c2ccc(F)cc2)oc2cc3c(cc12)C(C)N(CC(=O)N(C)C)CCN3S(C)(=O)=O` (centres unmarked) [Compound B150], the pEC50 (in assay [1] (setting [2]); in the assay on HCV 1a) was 7.00 to 8.00 in each case.
Take `CNC(=O)c1c(-c2ccc(F)cc2)oc2cc3c(cc12)/C(C)=C\CCCN3S(C)(=O)=O` [Compound B81]: the pEC50 in the assay with HCV 1a is 6.00 to 7.00.
In the case of `CNC(=O)c1c(-c2ccc(F)cc2)oc2cc3c(cc12)C(C)C(C)(C)CCN3S(C)(=O)=O` (centres unmarked) [Compound B115], the pEC50 (in assay [1] (setting [2]); in the assay with HCV 1a) was 7.00 to 8.00 in each case.
For `CNC(=O)c1c(-c2ccc(F)cc2)oc2cc3c(cc12)[C@@H](C)N1CCC[C@H]1CN3S(C)(=O)=O` (single isomer, unassigned) [Compound B122], the pEC50 in the assay with HCV 1a is under 6.00.
As for `[2H]C([2H])([2H])NC(=O)c1c(-c2ccc(F)cc2)oc2cc3c(cc12)C(C)N(C)CCN3S(C)(=O)=O` (centres unmarked) [Compound B152], the pEC50 with HCV 1a was 6.00 to 7.00.
Turning to `CNC(=O)c1c(-c2ccc(F)cc2)oc2cc3c(cc12)CCCCN3C(C)=O` [Compound B80], the pEC50 in the assay with HCV 1a is under 6.00.
Still for that read-out and setting: to `CNC(=O)c1c(-c2ccc(F)cc2)oc2cc3c(cc12)CCCCN3S(N)(=O)=O` [Compound B102] belongs 6.00 to 7.00.
Take `CNC(=O)c1c(-c2ccc(F)cc2)oc2cc3c(cc12)C(C)N(CCCO)CCN3S(C)(=O)=O` (centres unmarked) [Compound B154]: the pEC50 (in assay [1] (setting [2]); in the assay on HCV 1a) was 7.00 to 8.00 each time.
Take `CNC(=O)c1c(-c2ccc(F)cc2)oc2cc3c(cc12)C(C)N(C(C)=O)CCN3S(C)(=O)=O` (centres unmarked) [Compound B110]: the pEC50 in the assay with HCV 1a is 6.00 to 7.00.
Still for that read-out and setting: to `CNC(=O)c1c(-c2ccc(Oc3ccc(F)cc3)cc2)oc2cc3c(cc12)[C@H]1C[C@H]1CCN3S(C)(=O)=O` (single isomer, unassigned) [Compound B143] belongs 6.00 to 7.00.
Same read-out and setting: then `CNC(=O)c1c(-c2ccc(Oc3ccc(F)cc3)cc2)oc2cc3c(cc12)C1(CCCN3S(C)(=O)=O)CC1` [Compound B141], with 6.00 to 7.00.
As for `CS(=O)(=O)N1CCCCCc2cc3c(-c4ncc[nH]4)c(-c4ccc(F)cc4)nn3cc21` [Compound B129], in assay [1] (setting [3]), the pEC50 is 7.00 to 8.00.
With `CNC(=O)c1c(-c2ccc(F)cc2)oc2cc3c(cc12)C(C)OC(CN=[N+]=[N-])CN3S(C)(=O)=O` (centres unmarked) [Compound B218], the pEC50 in assay [1] (setting [2]) was at least 8.00; in assay [1] (setting [3]), over 8.00.
Taken in the same sequence, the figures for `CNC(=O)c1c(-c2ccc(F)cc2)oc2cc3c(cc12)C(C)OC(CNC(=O)OC)CN3S(C)(=O)=O` (centres unmarked) [Compound B221] were at least 8.00 and over 8.00.
As to `CNC(=O)c1c(-c2ccccc2)nn2cc3c(cc12)C(C)CCCN3S(C)(=O)=O` (centres unmarked) [Compound B105], the pEC50 in the assay with HCV 1a was 6.00 to 7.00.
As to `CS(=O)(=O)N1CCCCc2cc3c(C#N)c(-c4ccc(F)cc4)oc3cc21` [Compound B53], in assay [1] (setting [3]), the pEC50 is under 6.00.
On the same count and under the same terms, to `CNC(=O)c1c(-c2ccc(Oc3ccccc3F)cc2)nn2cc3c(cc12)C(C)CCCN3S(C)(=O)=O` (centres unmarked) [Compound B95] belongs 6.00 to 7.00; to `C=C1CCCN(S(C)(=O)=O)c2cc3oc(-c4ccc(F)cc4OC)c(C(=O)NC)c3cc21` [Compound B83], under 6.00.
Regarding `C=CCN1C(=O)CN(S(C)(=O)=O)c2cc3oc(-c4ccc(F)cc4)c(C(=O)NC)c3cc2C1C` (centres unmarked) [Compound B55], the pEC50 in assay [1] (setting [2]) and in assay [1] (setting [3]) was 7.00 to 8.00 each time.
Consider `CNC(=O)c1c(-c2ccc(F)cc2)nc2cc3c(cn12)C(C)=CCCO3` [Compound B30], for which, in assay [1] (setting [3]), the pEC50 is under 6.00.
`CCN1CCN(S(C)(=O)=O)c2cc3oc(-c4ccc(F)cc4)c(C(=O)NC)c3cc2C1C` (centres unmarked) [Compound B144]: the pEC50 in assay [1] (setting [2]) and in assay [1] (setting [3]) was 7.00 to 8.00 each time.
On to `CC1c2cc3c(-c4ncc[nH]4)c(-c4ccc(Oc5ccc(F)cc5)cc4)oc3cc2N(S(C)(=O)=O)CCN1C` (centres unmarked) [Compound B166], for which the pEC50 in assay [1] (setting [2]) and in assay [1] (setting [3]) was 7.00 to 8.00 in each case.
`CNC(=O)c1c(-c2ccc(F)cc2)oc2cc3c(cc12)C(C)NCCN3S(C)(=O)=O` (centres unmarked) [Compound B57]: the pEC50 in assay [1] (setting [2]) and in assay [1] (setting [3]) was 7.00 to 8.00 each time.
With `CNC(=O)c1c(-c2ccc(F)cc2)oc2cc3c(cc12)C(C)OC(C(=O)N1CCCC1)CN3S(C)(=O)=O` (centres unmarked) [Compound B227], the pEC50 in assay [1] (setting [2]) and in assay [1] (setting [3]) was 7.00 to 8.00 in each case.
Consider `CNC(=O)c1c(-c2ccc(F)cc2)oc2cc3c(cc12)C(C)c1ccccc1CN3S(C)(=O)=O` (centres unmarked) [Compound B199], for which the pEC50 in assay [1] (setting [2]) and in assay [1] (setting [3]) was 7.00 to 8.00 throughout.
For the molecule `CNC(=O)c1c(-c2ccc(F)cc2)oc2cc3c(cc12)C(C)N(C(=O)c1ccc(F)cc1)CCN3S(C)(=O)=O` (centres unmarked) [Compound B134], the pEC50 in assay [1] (setting [2]) and in assay [1] (setting [3]) was 7.00 to 8.00 in each case.
`CNC(=O)c1c(-c2ccc(F)cc2)oc2cc3c(cc12)[C@H](C)O[C@@H](CCO)CN3S(C)(=O)=O` [Compound B231]: the pEC50 in assay [1] (setting [2]) and in assay [1] (setting [3]) was 7.00 to 8.00 in each case.
Turning to `CNC(=O)c1c(-c2ccc(Oc3ccc(F)cc3)cc2)oc2cc3c(cc12)[C@@H](C)OC1(CC1)CN3S(C)(=O)=O` (single isomer, unassigned) [Compound B186], the pEC50 in assay [1] (setting [2]) and in assay [1] (setting [3]) was 7.00 to 8.00 each time.
On to `CNC(=O)c1c(-c2ccc(F)cc2)oc2cc3c(cc12)[C@@H](C)O[C@@H](CO)CN3S(C)(=O)=O` [Compound B211], for which the pEC50 in assay [1] (setting [3]) is under 6.00.
Take `CNC(=O)c1c(-c2ccc(Oc3ccc(F)cc3)cc2)oc2cc3c(cc12)C1CC1CCN3S(C)(=O)=O` (centres unmarked) [Compound B140]: the pEC50 in the assay on HCV 1a was 6.00 to 7.00.
Consider `CNC(=O)c1c(-c2ccc(F)cc2)oc2cc3c(cc12)C(C)OC(CC#N)CN3S(C)(=O)=O` (centres unmarked) [Compound B226], for which the pEC50 in assay [1] (setting [2]) was at least 8.00; in assay [1] (setting [3]), over 8.00.
Taken in the same sequence, the figures for `CNC(=O)c1c(-c2ccc(F)cc2)oc2cc3c(cc12)C(C(F)(F)F)OCCN3S(C)(=O)=O` (centres unmarked) [Compound B148] were at least 8.00 and over 8.00.
The matching figures for `CNC(=O)c1c(-c2ccc(F)cc2)oc2cc3c(cc12)C(C)OC(CO)CN3S(C)(=O)=O` (centres unmarked) [Compound B195]: 7.00 to 8.00 and 7.00 to 8.00.
On to `CNC(=O)c1c(-c2ccc(F)cc2)oc2cc3c(cc12)C(O)CCCCN3S(C)(=O)=O` (centres unmarked) [Compound B88], for which the pEC50 in assay [1] (setting [3]) is 6.00 to 7.00.
Regarding `CNC(=O)c1c(-c2ccc(Oc3ccc(F)cc3)cc2)oc2cc3c(cc12)[C@H](C)O[C@@H](CS(C)(=O)=O)CN3S(C)(=O)=O` [Compound B224], the pEC50 in assay [1] (setting [2]) and in assay [1] (setting [3]) was 7.00 to 8.00 throughout.
`CNC(=O)c1c(-c2ccc(F)cc2)oc2cc3c(cc12)C(C)N(CC(F)(F)F)CCN3S(C)(=O)=O` (centres unmarked) [Compound B107]: the values for the pEC50 in assay [1] (setting [2]) and in assay [1] (setting [3]) were at least 8.00 and over 8.00, respectively.
The matching figures for `CNC(=O)c1c(-c2ccc(F)cc2)oc2cc3c(cc12)C(C)NC(=O)CN3S(C)(=O)=O` (centres unmarked) [Compound B173]: 7.00 to 8.00 and 7.00 to 8.00.
Taken in the same sequence, the figures for `CNC(=O)c1c(-c2ccc(F)cc2)oc2cc3c(cc12)C1CC1CCN3S(C)(=O)=O` (centres unmarked) [Compound B127] were at least 8.00 and over 8.00.
The matching figures for `CNC(=O)c1c(-c2ccc(Oc3ccc(F)cc3)cc2)oc2cc3c(cc12)[C@H](C)O[C@H](COC(=O)[C@@H](N)C(C)C)CN3S(C)(=O)=O` [Compound B237]: at least 8.00 and over 8.00.
As to `CNC(=O)c1c(-c2ccc(F)cc2)nn2cc3c(cc12)C(C)CCCN3S(C)(=O)=O` (centres unmarked) [Compound B50], the pEC50 in assay [1] (setting [3]) was 6.00 to 7.00.
As for `CC1CCCN(S(C)(=O)=O)c2cc3oc(-c4ccc(Oc5ccc(F)cc5)cc4)c(-c4ncc[nH]4)c3cc21` (centres unmarked) [Compound B198], the pEC50 in assay [1] (setting [2]) is at least 8.00; in assay [1] (setting [3]) it was over 8.00.
As for `CNC(=O)c1c(-c2ccc(F)cc2)oc2cc3c(cc12)C(=O)CCCCN3S(C)(=O)=O` [Compound B82], the pEC50 in the assay on HCV 1a is 6.00 to 7.00.
